Holding throughout (type): cell-based
Assay [1] relates to LAN-1 human neuroblastoma cells. The assay can be described thus: Loewe additivity (CHALICE) synergy screen, CellTiter-Glo viability, 7x7 dose matrix. Details: key to Synergy score (Mean): Loewe excess inhibition synergy score; >0 synergistic; key to Max Combo Effect: growth inhibition scale; 100 = stasis. To be noted: LAN-1 (F1174L). How it is done: (§1) The synergistic interaction of drug combinations were assessed based on the Loewe Additivity Model using Chalice software [CombinatoRx, Cambridge Mass.]). […] 27:659-66. The software compares the response (% inhibition or % reduction of cell viability) of drug treatment from a combination of two agents to the response of the agents acting alone, against the drug-with-itself dose-additive reference model (the Loewe Additivity Model). Deviations from dose additives can be assessed numerically with a “synergy score” which quantifies the overall strength of combination effect. A synergy score >0 indicates a synergistic combination. In order to ensure only strongly synergistic combinations were selected, the acceptance criteria were set at a higher level. Strongly synergistic combinations were defined as having both a synergy score >2, a synergy score that is twice as large as the background (non-synergy) model would predict, and a maximum efficacy of >100, a value equivalent to stasis, as determined from the growth inhibition calculation.
(§2) After treatment, cell viabilty (quantity of viable cells) for each test mixtures were determined by the CellTiter-Glo® (CTG) luminescent cell viability assay (Promega) described in the Assay section, infra. […] The response to treatment (% reduction of cell viability) was analyzed using Chalice software [CombinatoRx, Cambridge Mass.]). Data evaluation and graph generation were performed using Microsoft Excel software and Chalice software.
The % inhibition (reduction in cell viability) by the drug treatments were recorded in the block In the dose matrix (left); the single agent treatment at the far left column and the bottom row, and the combinations in the remaining 6x6 combination blocks. The differences between the data in the dose matrix and the expected inhibition value generated by the Loewe model were reported in the Loewe Excess matrix. In this Excess Inhibition matrix, synergy is defined as values>0; that is inhibition greater than what would be expected from a simple additive interaction. Antagonism is defined as values<0; that is inhibition […] than what would be expected from a simple additive interaction. The synergy score for the drug treatments were computed taken into account of the entire 6×6 combination blocks within the matrix.
(§3) The combinations were tested in duplicate using a 7×7 dose matrix block in 1536 well format with a cell proliferation readout as described in the Assay section infra.
(§4) All synergy calculations were performed using CHALICE software package from Zalicus and potential synergistic interactions between compound combinations were assessed using the Excess Inhibition 2D matrix according to the Loewe additivity model and were reported as synergy score (Table 10) (Lehar et al). Strongly synergistic combination were identified as having both (1) a synergy score greater than 2, a synergy score that is twice as large as the background (non-synergy) model would predict, and (2) a maximum efficacy of >100, a value roughly equivalent to stasis, as determined from the growth inhibition calculation.
(§5) Cell viability were determined by measuring cellular ATP content using the CellTiter-Glo® (CTG) luminescent cell viability assay (Promega). […] Reduced and enhanced luminescent signal values (responses) were calculated relative to untreated (control) cells, and the calculated signal value proportional to the cell viability.
(§6) Synergistic combinations were identified based on the Loewe Addivity Model.

The subject of assay [2] is NGP human neuroblastoma cells. The assay is described as above. Details: key to Synergy score (Mean): Loewe excess-inhibition synergy score; >0 synergistic, >2 strong; key to Max Combo Effect: growth inhibition scale; 100 = stasis. To be noted: NGP (WT). How it is done: The synergistic interaction of drug combinations were assessed based on the Loewe Additivity Model using Chalice software [CombinatoRx, Cambridge Mass.]). […] The software compares the response (% inhibition or % reduction of cell viability) of drug treatment from a combination of two agents to the response of the agents acting alone, against the drug-with-itself dose-additive reference model (the Loewe Additivity Model). Deviations from dose additives can be assessed numerically with a “synergy score” which quantifies the overall strength of combination effect. A synergy score >0 indicates a synergistic combination. In order to ensure only strongly synergistic combinations were selected, the acceptance criteria were set at a higher level. Strongly synergistic combinations were defined as having both a synergy score >2, a synergy score that is twice as large as the background (non-synergy) model would predict, and a maximum efficacy of >100, a value equivalent to stasis, as determined from the growth inhibition calculation.
as §2, §5
Synergistic combinations were identified based on the Loewe Addivity Model. To measure the effects of drug combinations on the cell viability, cells from the 20 cell lines listed in Table 1 above were seeded into 1536-well assay plates at a density 300 cells per well in a 7 μL final volume and incubated at 37° C. overnight in a GNF Systems incubator with 95% RH and 5% CO2.
Approximately 18 hours after plating, compound combinations were generated on the fly by transferring 7.5 nL of compound from the pre-diluted source plates using the Labcyte ECHO555 integrated onto the ACP-1 system with replicate plates per cell line; the final DMSO concentration per well was 0.2%. It is noted that the total volume in the wells was 7 μL.
The well at the intersection of the first column and first row which received no compound was dosed with 2×7.5 nL of DMSO and served as control.
Following compound addition, the plates were returned to the incubator for 120 hours. The effects of the combinations on cellular viability were assessed with the addition of Cell Titer Glo (Promega G7573) using one of the GNF Bottle Valve dispensers on the ACP-1 system; plates were then incubated at room temperature for ten minutes and read on the integrated Perkin Elmer Viewlux (2 second exposure, 2×bin, high sensitivity). The raw data was normalized using the DMSO-treated cell control well within each plate.
All synergy calculations were performed using CHALICE software from Zalicus. […] Potential synergistic interactions between compound combinations were assessed using the Excess Inhibition 2D matrix according to the Loewe Additivity Model and are reported as synergy score.
Compounds were combined with themselves to determine the effect of assay noise on the synergy assessment parameters of the expected dose-additive interaction. Synergistic combination hits (strongly synergistic) were identified as having both a synergy score >2, a synergy score that is twice as large as the background model (non-synergy) would predict, and a maximum efficacy of >100, a value equivalent to stasis, as determined from the growth inhibition calculation.

For assay [3], the system named is panel of human neuroblastoma cell lines (ALK mutant and wild type). The experiment in a line: Loewe additivity (CHALICE) synergy screen, results over the whole panel. To be noted: for Mean of synergy scores over the cell lines / Median of synergy scores over the cell lines: 15 cell lines of Table 2; for Single-agent efficacy over the panel (self-cross scatter plots): Example A, FIGS. 4A, 4B, 15 cell lines; for Efficacy and synergy over the panel (scatter plots): Example G, FIG. 21, 16 cell lines. The protocol:
as §1, §2
The statistical variation of the synergy scores tabulated in Tables 2 and 3 were graphically illustrated by a Box Plot (FIG. 3). […] The ALK×ALK and CDK4/6×CDK4/6 combination is moderately sygergistic with synergy score at 1.011 (sd=0.4) and 1.16 (sd=0.43), respectively. In ALK normal cells, the combinations and the self-cross treatments were not sygeristic with synergistic score of about 0.5, but similarly large standard deviations.
For visual identification for strongly synergistic compositions, the data in Tables 2 and 3 were presented in scatter plots (FIGS. 4 A-C) where maximum combination efficacy were plotted against the synergy scores. Only data from two of the three ALK inhibitors, compounds A1 and A2 were included. In a scatter plot, a vertical shift implies additive effect; a right shift implies synergistic interactions and a diagonal shift implies synergy with a boost in efficacy. Synergistic combination hits are those in the upper right quadrant where the synergy score is >2 and the maximum efficacy is >100.
as §3, §4, §5, §6

Results on 4 molecules are retold here after patent US20160361314A1, “COMBINATION OF AN ALK INHIBITOR AND A CDK INHIBITOR FOR THE TREATMENT OF CELL PROLIFERATIVE DISEASES” (NOVARTIS AG, priority 2013, published 2016).

Entries after “also recorded” stand apart in the source; their conditions may differ.

As for `C[C@@H](Oc1cc(-c2cnn(C3CCNCC3)c2)cnc1N)c1c(Cl)ccc(F)c1Cl` [Compound A3, (R)-3-(1-(2,6-dichloro-3-fluorophenyl)ethoxy)-5-(1-(piperidin-4-yl)-1H-pyrazol-4-yl)pyridin-2-amine, reference compound], the entries for the “Max Combo Effect” value in assay [1] (Table 3) and in assay [2] (Table 3) were 77.73 and 11.39, respectively. Moreover, the “Synergy score (Mean)” value in assay [1] (Table 3) turned out to be 0.63; in assay [2] (Table 3), 0.01.

Take `Cc1cc(Nc2ncc(Cl)c(Nc3ccccc3S(=O)(=O)C(C)C)n2)c(OC(C)C)cc1C1CCNCC1` [Compound A1, 5-chloro-N2-(2-isopropoxy-5-methyl-4-(piperidin-4-yl)phenyl)-N4-[2-(propane-2-sulfonyl)-phenyl]-pyrimidine-2,4-diamine]: the “Max Combo Effect” value in assay [1] (Table 2) is given as 114.2. In addition, the “Synergy score (Mean)” value in assay [1] (Table 2, listed as Cmpd A1 Self Cross) was 1.011. Besides, the “Synergy score (Mean)” value in assay [1] (Table 2, listed as Cpd A1×A1) was 1.01. In addition, in assay [2] (Table 2), the “Max Combo Effect” value came out at 104.1 and the “Synergy score (Mean)” value was found to be 0.822. In assay [3], the “Mean of synergy scores over the cell lines” value came to 0.841; the “Median of synergy scores over the cell lines” value is listed as 0.884; the “Single-agent efficacy over the panel (self-cross scatter plots)” value (shortened to “Single-agent efficacy over the panel”) is “preferential single-agent efficacy for the ALK disease cell lines over the ALK normal cell lines”; the “Efficacy and synergy over the panel (scatter plots)” value is given as “preferential single agent efficacy for the ALK Disease subset of cell lines over the ALK WT cell lines”.

As to `Cc1cc(Nc2nc(Nc3ccccc3S(=O)(=O)C(C)C)c3cn[nH]c3n2)c(OC(C)C)cc1C1CCN(C)CC1` [Compound A2, N6-(2-isopropoxy-5-methyl-4-(1-methylpiperidin-4-yl)phenyl)-N4-(2-(isopropylsulfonyl)phenyl)-1H-pyrazolo[3,4-d]pyrimidine-4,6-diamine], in assay [2] (Table 3), the “Max Combo Effect” value was 184.04 and the “Synergy score (Mean)” value was found to be 0.84. In addition, the “Single-agent efficacy over the panel” value in assay [3] was “preferential single-agent efficacy for the ALK disease cell lines over the ALK normal cell lines”.

`CN(C)C(=O)c1cc2cnc(Nc3ccc(N4CCNCC4)cn3)nc2n1C1CCCC1` [Compound B, 7-cyclopentyl-N,N-dimethyl-2-((5-(piperazin-1-yl)pyridin-2-yl)amino)-7H-pyrrolo[2,3-d]pyrimidine-6-carboxamide]: the “Max Combo Effect” value in assay [1] (Table 2) worked out at 142.3. Moreover, in assay [1] (Table 3), the “Max Combo Effect” value is 62.78 and the “Synergy score (Mean)” value was 0.25. In addition, in assay [2] (Table 2), the “Max Combo Effect” value is on record as 31.2 and the “Synergy score (Mean)” value turned out to be 0.084. Moreover, in assay [2] (Table 3), the “Max Combo Effect” value is 17.0 and the “Synergy score (Mean)” value was 0.01. In assay [3], the “Mean of synergy scores over the cell lines” value is 0.757; the “Median of synergy scores over the cell lines” value is reported as 0.788; the “Single-agent efficacy over the panel” value was “single-agent efficacy (>100) in two disease cell lines and one normal cell line; also recorded: minimal single agent efficacy or synergy”; the “Efficacy and synergy over the panel (scatter plots)” value was “no single agent efficacy in any of the cell lines tested”.
